Test results reported in patent publication US20210300943A1, “OGA INHIBITOR COMPOUNDS” (Janssen Pharmaceutica NV, priority 2018, published 2021).

Molecular target: T1, OGA (Mus musculus, UniProt Q9EQQ9)
T1 construct: from tissue; host or cells: mouse brain (right hemisphere sagittal sections, forebrain area)
T1 sequence (Q9EQQ9 1-916): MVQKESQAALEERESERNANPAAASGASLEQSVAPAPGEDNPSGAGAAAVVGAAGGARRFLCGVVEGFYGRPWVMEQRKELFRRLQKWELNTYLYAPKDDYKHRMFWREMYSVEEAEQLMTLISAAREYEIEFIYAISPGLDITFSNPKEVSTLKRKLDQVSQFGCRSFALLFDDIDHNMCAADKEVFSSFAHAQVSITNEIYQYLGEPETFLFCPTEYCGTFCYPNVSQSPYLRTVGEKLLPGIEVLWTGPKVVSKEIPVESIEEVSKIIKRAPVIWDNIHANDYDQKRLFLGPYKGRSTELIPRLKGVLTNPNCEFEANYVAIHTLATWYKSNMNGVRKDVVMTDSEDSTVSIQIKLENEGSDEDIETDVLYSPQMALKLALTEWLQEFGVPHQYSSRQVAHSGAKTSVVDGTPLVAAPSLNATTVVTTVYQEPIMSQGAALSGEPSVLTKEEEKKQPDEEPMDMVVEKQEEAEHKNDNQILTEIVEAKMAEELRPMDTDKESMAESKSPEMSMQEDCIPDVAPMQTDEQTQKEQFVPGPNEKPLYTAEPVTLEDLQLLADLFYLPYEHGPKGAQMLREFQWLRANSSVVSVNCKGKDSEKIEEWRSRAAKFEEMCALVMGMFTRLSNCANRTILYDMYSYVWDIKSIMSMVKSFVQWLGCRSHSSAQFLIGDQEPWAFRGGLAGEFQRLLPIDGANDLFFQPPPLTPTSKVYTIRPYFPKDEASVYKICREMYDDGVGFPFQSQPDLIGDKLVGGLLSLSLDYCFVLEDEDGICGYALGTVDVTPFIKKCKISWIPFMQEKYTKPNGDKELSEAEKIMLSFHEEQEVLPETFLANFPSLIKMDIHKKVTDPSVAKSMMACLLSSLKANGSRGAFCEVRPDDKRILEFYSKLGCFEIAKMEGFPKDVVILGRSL
Assay: Ex vivo OGA occupancy assay using [3H]-ligand
Format: in vivo
Details: po, male NMRI or C57Bl6j mice, p.o., 24 h after administration, forebrain area of brain sections, 3 nM [3H]-ligand, normalised to vehicle, read-out: Occupancy (% +/- sd)
Method: Ex Vivo Oga Occupancy Assay Using [^3H]-Ligand
Drug Treatment and Tissue Preparation
Male NMRI or C57Bl6j mice were treated by oral (p.o.) administration of vehicle or compound. Animals were sacrificed 24 hours after administration. Brains were immediately removed from the skull, hemispheres were separated and the right hemisphere, for ex vivo OGA occupancy assay, was rapidly frozen in dry-ice cooled 2-methylbutane (−40° C.). […] sagittal sections were cut using a Leica CM 3050 cryostat-microtome (Leica, Belgium), thaw-mounted on microscope slides (SuperFrost Plus Slides, Thermo Fisher Scientific) and stored at −20° C. until use. After thawing, sections were dried under a cold stream of air. The sections were not washed prior to incubation. The 10 minutes incubation with 3 nM [^3H]-ligand was rigorously controlled. All brain sections (from compound-treated and vehicle-treated animals) were incubated in parallel. […]
Quantitative autoradiography and data analysis Radioactivity in the forebrain area of brain slices was measured using a β-imager with M3 vision analysis software (Biospace Lab, Paris). Specific binding was calculated as the difference between total binding and non-specific binding measured in Thiamet-G (10 μM) treated sections. […]

For Cc1cc([C@H]2CCCN(C(C)c3cnc4c(c3)OCCN4)C2)cc(C)n1 (single isomer, unassigned) [Product 135], the receptor occupancy at 25 mg/kg was 20.7%.
Work on Cc1cc(OC[C@H]2CCCN(C(C)c3nc4c(cc3F)OCCO4)C2)cc(C)n1 (single isomer, unassigned) [Product 155] yielded a receptor occupancy at 25 mg/kg of 92.7%.
